SMILES strings stand for the structures. Like-named read-outs stand apart in the source and are kept apart here. A value given as a limit tells only on which side of the number the result lay.

As usually defined, the IC50 is the concentration at which inhibition is half-maximal.

The subject of assay [1] is HCV replicon (BB7 sequence) in Huh-7-Clone A cells. Description: HCV replicon assay: ELISA of NS5A protein in replicon-containing cells (Inhibition of Viral RNA Replication). It counts as cell-based. An excerpt:
Antiviral activity of representative compounds of the invention was first evaluated in a human liver-derived cell line (Huh-7-Clone A) containing the HCV replicon (BB7 sequence) (See Lohmann et al. Science. 1999, 285:110-3; Blight K J et al., Science. 2000, 290:1972-4; Pietschmann, T. et al., J. Virol. 2001, 73:1252-1264; and Lohmann, V. et al., J. Virol. 2001, 75:1437-1449). The HCV replicon is a subgenomic viral RNA that expresses the HCV proteins required for its own replication. These proteins include non-structural proteins NS3, NS4A, NS4B, NS5A and NS5B. The replicon also contains a foreign gene encoding a drug-selectable marker (neomycin phosphotransferase) to allow for G418 (neomycin) selection of cells that contain the replicon.
An ELISA (enzyme-linked immunosorbant assay) was used to determine the effect of compounds within the scope of the invention on the amount of HCV NS5A protein produced after a 72-hour incubation of the replicon-containing cells in the presence of varying concentrations of compound. COSTAR® 96-well cell culture plates were used but other known cell culture plates may be used. After incubation, media is removed from wells and the cells are fixed to the assay plate using 0.05% glutaraldehyde. The glutaraldehyde is then washed off using phosphate-buffered saline (PBS) following a 1 hour incubation and cells are blocked for non-specific antibody binding using for example SUPERBLOCK® reagent (blocking buffer) in PBS. The blocking agent is rinsed from the cells with PBS after 1 hour at 37° C. and primary monoclonal antibody is added to each well containing compound. Primary antibody is incubated for 1 hour at 37° C. and rinsed 3 times with PBS containing 0.02% TWEEN-20™ before addition of Horseradish Peroxidase (HRP) conjugated secondary antibody. HRP is incubated for 1 hour at 37° C. and rinsed several times, first with PBS/TWEEN-20™ followed by PBS alone. To quantify peroxidase activity, 3,3′,5, 5′-tetramethylbenzidine (TMB) substrate is added to the plate and after 30 minutes, the plates are read in an ELISA plate reader at an OD of 650 nm. Compound dose response was measured in an 8-point dose curve diluted serially to determine the inhibitory concentration at 50% (EC50 value). […] Ranges of 50% effective concentrations (EC50s) for representative compounds within the scope of this invention are listed in Table 1. Preferred compounds have 50% effective concentrations at about 30 μM or less, more preferred compounds have 50% effective concentrations at about 5 μM or less, and most preferred compounds have 50% effective concentrations at about 0.5 μM or less.
(A replicon is a self-replicating genome or part of one, used to study replication in cells.)

A further assay addresses T1, HCV NS5B (Hepatitis C virus genotype 1b, UniProt Q9WMX2).
T1 construct: fusion protein, of which the carboxyl terminal 21 amino acids were removed to enhance its solubility; His tag (GSHHHHHH); made in house; host or cells: E. coli
Description: Inhibition of viral RNA-dependent RNA polymerase (RdRp), in vitro biochemical assay. Conditions: read-out: HCV pol-BB7 IC50. On the set-up: species or system HCV genotype 1b virus (BB7). From the text: The HCV NS5B-directed RdRp activity was established and characterized in a standard in vitro biochemical assay using a purified HCV NS5B protein derived from the consensus sequence of a patient infected with HCV genotype 1b virus (BB7). (See Blight K J et al., Science. 2000, 290:1972-4). The NS5B consensus sequence was cloned and expressed in E. coli as a histidine tagged (GSHHHHHH) fusion protein, of which the carboxyl terminal 21 amino acids were removed to enhance its solubility.
In addition to evaluating their activity in the replicon assay, representative compounds within the scope of the present invention, as shown in examples 1-453 of Table 1, were also evaluated for antiviral activity using this assay. A measure of the inhibitory activity of compounds of the invention may be expressed as IC50 values. IC50 values represent the concentration of the compound at which 50% of the RdRp activity is inhibited. […] These low concentrations of test compounds required to achieve 50% inhibition of the RdRp activity indicate that the compounds of the invention are effective at inhibiting RNA synthesis by viral RdRp enzymes.

Setting [2] is: Hepatitis C virus, HCV replicon assay, ranges of 50% effective concentration (EC50), read-out: Replicon.
[3] abbreviates: HCV NS5B polymerase, BB7 (genotype 1b), values given as range classes A-D.
[4] abbreviates: Hepatitis C virus, HCV replicon, range of EC50, read-out: Replicon.
Where [5] appears, read: HCV NS5B RdRp, BB7, reported as range class.
Where [6] appears, read: Hepatitis C virus, Huh-7-Clone A, NS5A ELISA, 72-hour incubation, ranges of EC50, read-out: Replicon.
Setting [7] is: purified His-tagged NS5B (BB7), carboxyl terminal 21 amino acids removed.
[8] abbreviates: Hepatitis C virus, HCV replicon assay, ranges of EC50, read-out: Replicon.
Where [9] appears, read: HCV NS5B RdRp, BB7, class symbols A-D.
The mark [10] stands for this setting: Hepatitis C virus, ranges of EC50 in HCV replicon assay, read-out: Replicon.

Regarding `CCOC(=O)c1csc(COc2cc3c(C(=O)NC)c(-c4ccc(F)cc4)oc3cc2N(C)S(C)(=O)=O)n1` [Example 392, 2-[2-(4-Fluoro-phenyl)-6-(methanesulfonyl-methyl-amino)-3-methylcarbamoyl-benzofuran-5-yloxymethyl]-thiazole-4-carboxylic acid ethyl ester], the EC50 in assay [1] (setting [2]) is less than 1 µM. Moreover, the IC50 at HCV NS5B (setting [3]) is no more than 500 nM.
For the compound `CNC(=O)c1c(-c2ccc(F)cc2)oc2cc(N3CCOCC3)c(OC(C)c3ccc(F)cc3)cc12` (centres unmarked) [Example 212, 2-(4-Fluoro-phenyl)-5-[1-(4-fluoro-phenyl)-ethoxy]-6-morpholin-4-yl-benzofuran-3-carboxylic acid methylamide], in assay [1] (setting [4]), the EC50 is less than 1 µM. At HCV NS5B (setting [5]), the IC50 was no more than 500 nM.
As to `CNC(=O)c1c(-c2ccc(F)cc2)oc2cc(N3CCOCC3)c(OCc3ccc(C#N)cc3)cc12` [Example 213, 5-(4-Cyano-benzyloxy)-2-(4-fluoro-phenyl)-6-morpholin-4-yl-benzofuran-3-carboxylic acid methylamide], the EC50 in assay [1] (setting [4]) is less than 10 µM. Besides, the half-maximal inhibitory concentration (IC50) on HCV NS5B (setting [5]) was 500 to 5000 nM.
Turning to `CNC(=O)c1c(-c2ccc(F)cc2)oc2cc(C3CNC(=O)O3)c(OC)cc12` (centres unmarked) [Example 48, 2-(4-Fluoro-phenyl)-5-methoxy-6-(2-oxo-oxazolidin-5-yl)-benzofuran-3-carboxylic acid methylamide], the EC50 in assay [1] (setting [6]) is less than 10 µM. For the same compound, the IC50 at HCV NS5B (setting [7]) was no more than 500 nM.
Take `CNC(=O)c1c(-c2ccc(F)cc2)oc2cc(N(C)S(C)(=O)=O)c(OCC(=O)Nc3nncs3)cc12` [Example 416, 2-(4-Fluoro-phenyl)-6-(methanesulfonyl-methyl-amino)-5-([1,3,4]thiadiazol-2-ylcarbamoylmethoxy)-benzofuran-3-carboxylic acid methylamide]: the EC50 in assay [1] (setting [2]) is less than 1 µM. Further, the IC50 at HCV NS5B (setting [3]) was no more than 500 nM.
For the compound `CNC(=O)c1c(-c2ccc(F)cc2)oc2cc(C3CCOC3)c(OC)cc12` (centres unmarked) [Example 442, 2-(4-Fluoro-phenyl)-5-methoxy-6-(tetrahydro-furan-3-yl)-benzofuran-3-carboxylic acid methylamide], in assay [1] (setting [8]), the EC50 is less than 1 µM. In addition, at HCV NS5B (HCV NS5B RdRp, BB7 (genotype 1b), reported as class symbols), the IC50 is no more than 500 nM.
As for `CNC(=O)c1c(-c2ccc(F)cc2)oc2cc(C3CCCN3S(C)(=O)=O)c(OC)cc12` (centres unmarked) [Example 309, 2-(4-Fluoro-phenyl)-6-(1-methanesulfonyl-pyrrolidin-2-yl)-5-methoxy-benzofuran-3-carboxylic acid methylamide], the EC50 in assay [1] (setting [8]) was less than 1 µM. Also, the IC50 at HCV NS5B (setting [9]) was no more than 500 nM.
Consider `CNC(=O)c1c(-c2ccc(F)cc2)oc2cc(-c3c(C)noc3C)c(OCc3cscn3)cc12` [Example 401, 6-(3,5-Dimethyl-isoxazol-4-yl)-2-(4-fluoro-phenyl)-5-(thiazol-4-ylmethoxy)-benzofuran-3-carboxylic acid methylamide], for which the EC50 in assay [1] (setting [2]) was less than 1 µM. Moreover, the IC50 at HCV NS5B (setting [3]) is no more than 500 nM.
In the case of `CNC(=O)c1c(-c2ccc(F)cc2)oc2cc(NS(C)(=O)=O)c(-c3c(C)noc3C)cc12` [Example 407, 5-(3,5-Dimethyl-isoxazol-4-yl)-2-(4-fluoro-phenyl)-6-methanesulfonylamino-benzofuran-3-carboxylic acid methylamide], the EC50 in assay [1] (setting [2]) was less than 10 µM.
In the case of `CNC(=O)c1c(-c2ccc(F)cc2)oc2cc(N3CCOCC3)c(OCc3cnc[nH]3)cc12` [Example 225, 2-(4-Fluoro-phenyl)-5-(3H-imidazol-4-ylmethoxy)-6-morpholin-4-yl-benzofuran-3-carboxylic acid methylamide], in assay [1] (setting [4]), the EC50 was less than 10 µM. For the same compound, on HCV NS5B (setting [5]), the IC50 was no more than 500 nM.
`CNC(=O)c1c(-c2ccc(F)cc2)oc2cc(N(C)S(C)(=O)=O)c(OCc3ncc[nH]3)cc12` [Example 405, 2-(4-Fluoro-phenyl)-5-(1H-imidazol-2-ylmethoxy)-6-(methanesulfonyl-methyl-amino)-benzofuran-3-carboxylic acid methylamide]: the EC50 in assay [1] (setting [2]) is less than 1 µM. In addition, the IC50 on HCV NS5B (setting [3]) is no more than 500 nM.
`CNC(=O)c1c(-c2ccc(F)cc2)oc2cc(-c3nc(C)nn3C)c(OC)cc12` [Example 387, 6-(2,5-Dimethyl-2H-[1,2,4]triazol-3-yl)-2-(4-fluoro-phenyl)-5-methoxy-benzofuran-3-carboxylic acid methylamide]: the EC50 in assay [1] (setting [2]) was less than 10 µM. Also, the IC50 at HCV NS5B (setting [3]) was in the range of 500 to 5000 nM.
With `CNC(=O)c1c(-c2ccc(F)cc2)oc2cc(NS(=O)(=O)CCCCl)c(OC(C)C)cc12` [Example 133, 6-(3-Chloro-propane-1-sulfonylamino)-2-(4-fluoro-phenyl)-5-isopropoxy-benzofuran-3-carboxylic acid methylamide], the EC50 in assay [1] (setting [10]) is less than 1 µM. On HCV NS5B (HCV NS5B RdRp, BB7 genotype 1b), the IC50 lay within 500 to 5000 nM.
With `CCS(=O)(=O)Nc1cc2oc(-c3ccc(F)cc3)c(C(=O)NC)c2cc1OC(C)C` [Example 156], in assay [1] (Hepatitis C virus, read-out: Replicon (μM)), the EC50 is less than 10 µM. Also, at HCV NS5B (HCV NS5B RdRp, BB7 genotype 1b), the IC50 was no more than 500 nM.
In the case of `CNC(=O)c1c(-c2ccc(F)cc2)oc2cc(N(Cc3c(C)noc3C)S(C)(=O)=O)c(OC)cc12` [Example 290, 6-[(3,5-Dimethyl-isoxazol-4-ylmethyl)-methanesulfonyl-amino]-2-(4-fluoro-phenyl)-5-methoxy-benzofuran-3-carboxylic acid methylamide], in assay [1] (setting [8]), the EC50 is less than 10 µM. In addition, the IC50 on HCV NS5B (setting [9]) was no more than 500 nM.
Take `CNC(=O)c1c(-c2ccc(F)cc2)oc2cc(-c3cccnc3)c(OC(C)C)cc12` [Example 153, 2-(4-Fluoro-phenyl)-5-isopropoxy-6-pyridin-3-yl-benzofuran-3-carboxylic acid methylamide]: in assay [1] (setting [10]), the EC50 was less than 10 µM. Also, at HCV NS5B (HCV NS5B RdRp, BB7 genotype 1b), the IC50 is no more than 500 nM.
For the compound `CNC(=O)c1c(-c2ccc(F)cc2)oc2cc(N3CCC3)c(OC(C)C)cc12` [Example 109], the EC50 in assay [1] (ranges of EC50 in HCV replicon assay, read-out: Replicon) was less than 1 µM. In addition, the IC50 at HCV NS5B (HCV NS5B RdRp, BB7 genotype 1b) is no more than 500 nM.
In the case of `CNC(=O)c1c(-c2ccccc2)oc2c(C)cc(OC)cc12` [Example 63, 5-Methoxy-7-methyl-2-phenyl-benzofuran-3-carboxylic acid methylamide], in assay [1] (setting [6]), the EC50 is less than 10 µM. The IC50 on HCV NS5B (setting [7]) is 500 to 5000 nM.
With `CCCOc1cc2c(C(=O)NC)c(-c3ccc(F)cc3)oc2cc1N(CCC)S(C)(=O)=O` [Example 338, 2-(4-Fluoro-phenyl)-6-(methanesulfonyl-propyl-amino)-5-propoxy-benzofuran-3-carboxylic acid methylamide], in assay [1] (setting [8]), the EC50 is less than 1 µM. Further, on HCV NS5B (HCV NS5B RdRp, BB7, activity class), the IC50 is no more than 500 nM.
Take `CNC(=O)c1c(-c2ccc(F)cc2)oc2cc(N(C)S(C)(=O)=O)c(OC(C)c3nccs3)cc12` (centres unmarked) [Example 408, 2-(4-Fluoro-phenyl)-6-(methanesulfonyl-methyl-amino)-5-(1-thiazol-2-yl-ethoxy)-benzofuran-3-carboxylic acid methylamide]: the EC50 in assay [1] (setting [2]) was less than 1 µM.

The values above are taken from patent publication US7265152B2 (ViroPharma Incorporated, priority 2002, dated 2007).
